From PubChem BioAssay AID248 (DTP/NCI, 2004)
Inconclusive results and toxic doses are left out. Rule as the data show it: active = T/C of 150% or more; inactive = T/C below 125%.

System: L1210 leukemia ip in BDF1 mice, survival T/C
Experiment: NCI In Vivo Anticancer Drug Screen. Data for tumor model L1210 Leukemia (intraperitoneal) in B6D2F1 (BDF1) mice
Conditions: endpoint: mean survival time, higher = longer survival
In short: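 Transplantable tumor model; survival measured in treated vs vehicle control mice. Value = treated/control.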

[1] = dose: 100.0 mg/kg/injection, schedule: Q01DX009 (ip), vehicle: saline with Tween-80
[2] = dose: 200.0 mg/kg/injection, schedule: Q01DX009 (ip), vehicle: saline with Tween-80
[3] = dose: 400.0 mg/kg/injection, schedule: Q01DX009 (ip), vehicle: saline with Tween-80
[4] = dose: 100.0 mg/kg/injection, schedule: Q04DX003 (ip), vehicle: Klucel (hydroxypropylcellulose) (HPC)
[5] = dose: 200.0 mg/kg/injection, schedule: Q04DX003 (ip), vehicle: Klucel (hydroxypropylcellulose) (HPC)
[6] = dose: 400.0 mg/kg/injection, schedule: Q04DX003 (ip), vehicle: Klucel (hydroxypropylcellulose) (HPC)
[7] = dose: 100.0 mg/kg/injection, schedule: Q01DX001 (ip), vehicle: saline
[8] = dose: 200.0 mg/kg/injection, schedule: Q01DX001 (ip), vehicle: saline
[9] = dose: 400.0 mg/kg/injection, schedule: Q01DX001 (ip), vehicle: saline
[10] = dose: 100.0 mg/kg/injection, schedule: Q01DX001 (ip), vehicle: carboxymethylcellulose (CMC)
[11] = dose: 200.0 mg/kg/injection, schedule: Q01DX001 (ip), vehicle: carboxymethylcellulose (CMC)
[12] = dose: 100.0 mg/kg/injection, schedule: Q01DX009 (ip), vehicle: saline
[13] = dose: 200.0 mg/kg/injection, schedule: Q01DX009 (ip), vehicle: saline
[14] = dose: 400.0 mg/kg/injection, schedule: Q01DX009 (ip), vehicle: saline

Measured: T/C

COc1cccc(CNc2cccc(Cl)c2Cl)c1OC
inactive: [1] 103 % of control | dose: 100.0 mg/kg/injection, schedule: Q04DX003 (ip), vehicle: other 102 % of control | [2] 94 % of control | dose: 200.0 mg/kg/injection, schedule: Q04DX003 (ip), vehicle: other 96 % of control | [3] 109 % of control | dose: 400.0 mg/kg/injection, schedule: Q04DX003 (ip), vehicle: other 113 % of control

Cc1cc(C)n(N=C2CCCCC2)c(=O)c1C#N
inactive: dose: 100.0 mg/kg/injection, schedule: Q01DX001 (ip), vehicle: Klucel (hydroxypropylcellulose) (HPC) 96 % of control | [4] 100 % of control | dose: 200.0 mg/kg/injection, schedule: Q01DX001 (ip), vehicle: Klucel (hydroxypropylcellulose) (HPC) 105 % of control | [5] 99 % of control | dose: 400.0 mg/kg/injection, schedule: Q01DX001 (ip), vehicle: Klucel (hydroxypropylcellulose) (HPC) 94 % of control | [6] 89 % of control

O=C(c1ccccc1)C(O)(CCP(=O)(c1ccccc1)c1ccccc1)c1ccccc1 (centres undefined)
inactive: dose: 75.0 mg/kg/injection, schedule: Q01DX001 (ip), vehicle: carboxymethylcellulose (CMC) 88 % of control | dose: 150.0 mg/kg/injection, schedule: Q01DX001 (ip), vehicle: carboxymethylcellulose (CMC) 96 % of control

CS(=O)C(Cl)C(O)c1ccccc1 (centres undefined)
inactive: dose: 100.0 mg/kg/injection, schedule: Q03DX002 (ip), vehicle: saline with Tween-80 117 % of control | dose: 400.0 mg/kg/injection, schedule: Q03DX002 (ip), vehicle: saline with Tween-80 110 % of control

C=CCc1ccc2c(c1)OC(CO)CO2 (centres undefined) (tested in a mixture with another compound)
inactive: [7] 90 % of control | [8] 93 % of control | [9] 93 % of control

CCCCCCCCCCCCCCCCC(/C=N/N=C(N)N)=N\N=C(N)N
inactive: dose: 15.0 mg/kg/injection, schedule: Q01DX Z (ip), vehicle: methylcellulose (MC) 95 % of control | dose: 30.0 mg/kg/injection, schedule: Q01DX Z (ip), vehicle: methylcellulose (MC) 98 % of control | dose: 60.0 mg/kg/injection, schedule: Q01DX Z (ip), vehicle: methylcellulose (MC) 110 % of control | dose: 120.0 mg/kg/injection, schedule: Q01DX Z (ip), vehicle: methylcellulose (MC) 103 % of control | dose: 240.0 mg/kg/injection, schedule: Q01DX Z (ip), vehicle: methylcellulose (MC) 101 % of control | dose: 360.0 mg/kg/injection, schedule: Q01DX Z (ip), vehicle: methylcellulose (MC) 97 % of control | dose: 480.0 mg/kg/injection, schedule: Q01DX Z (ip), vehicle: methylcellulose (MC) 98 % of control | dose: 720.0 mg/kg/injection, schedule: Q01DX Z (oral), vehicle: methylcellulose (MC) 97 % of control | dose: 960.0 mg/kg/injection, schedule: Q01DX Z (oral), vehicle: methylcellulose (MC) 93 % of control

Nc1cc(Cl)cc2[nH]c(=O)c3cc(Cl)ccc3c12
inactive: [10] 100 % of control | [11] 102 % of control | dose: 400.0 mg/kg/injection, schedule: Q01DX001 (ip), vehicle: carboxymethylcellulose (CMC) 95 % of control

CCOCCN=Cc1c[nH]c2ccccc12
inactive: [4] 98 % of control | [5] 95 % of control | [6] 98 % of control

CC(=O)Nc1ccc(C(=O)O)c([N+](=O)[O-])c1
inactive: [12] 100 % of control | dose: 100.0 mg/kg/injection, schedule: Q04DX003 (ip), vehicle: saline 104 % of control | [13] 94 % of control | dose: 200.0 mg/kg/injection, schedule: Q04DX003 (ip), vehicle: saline 104 % of control | [14] 93 % of control | dose: 400.0 mg/kg/injection, schedule: Q04DX003 (ip), vehicle: saline 94 % of control

CCCCCCCCCCS
inactive: [10] 114 % of control | [11] 101 % of control

Cn1c(=O)cc(C=Nc2ccc(S(N)(=O)=O)cc2)c2ccccc21
inactive: [7] 102 % of control | [8] 100 % of control | [9] 98 % of control

CCC(=O)C(C)(C)c1ccccc1 (tested in a mixture with another compound)
inactive: dose: 50.0 mg/kg/injection, schedule: Q01DX009 (ip), vehicle: saline with Tween-80 95 % of control | [1] 88 % of control | [2] 96 % of control

NN(C(=O)c1ccc([N+](=O)[O-])cc1)C1CCCCC1
inactive: dose: 100.0 mg/kg/injection, schedule: Q04DX003 (ip), vehicle: acetone 96 % of control | dose: 200.0 mg/kg/injection, schedule: Q04DX003 (ip), vehicle: acetone 106 % of control | dose: 400.0 mg/kg/injection, schedule: Q04DX003 (ip), vehicle: acetone 93 % of control

O=C1OCCC1n1ccc(=O)[nH]c1=O (centres undefined)
inactive: [12] 111 % of control | [13] 105 % of control | [14] 106 % of control

C=CCOC(=O)CCCCCCCCCCC
inactive: [1] 107 % of control | [2] 107 % of control | [3] 96 % of control

ClCCN(CCCl)CCCNCCCNc1c2ccccc2nc2c1ccc1ccccc12
inactive: dose: 0.08 mg/kg/injection, schedule: Q01DX Z (ip), vehicle: saline 102 % of control | dose: 0.16 mg/kg/injection, schedule: Q01DX Z (ip), vehicle: saline 106 % of control | dose: 0.31 mg/kg/injection, schedule: Q01DX Z (ip), vehicle: saline 110 % of control | dose: 0.62 mg/kg/injection, schedule: Q01DX Z (ip), vehicle: saline 112 % of control | dose: 1.25 mg/kg/injection, schedule: Q01DX Z (ip), vehicle: saline 102 % of control | dose: 2.5 mg/kg/injection, schedule: Q01DX Z (ip), vehicle: saline 97 % of control

O=C(NC/C(Cl)=C/Cl)Oc1cccc2ccccc12
inactive: dose: 75.0 mg/kg/injection, schedule: Q01DX009 (ip), vehicle: Klucel (hydroxypropylcellulose) (HPC) 107 % of control | dose: 150.0 mg/kg/injection, schedule: Q01DX009 (ip), vehicle: Klucel (hydroxypropylcellulose) (HPC) 104 % of control | dose: 300.0 mg/kg/injection, schedule: Q01DX009 (ip), vehicle: Klucel (hydroxypropylcellulose) (HPC) 98 % of control

CNC(=O)Oc1c(C)occc1=O
inactive: dose: 75.0 mg/kg/injection, schedule: Q01DX009 (ip), vehicle: other 100 % of control | dose: 75.0 mg/kg/injection, schedule: Q01DX009 (ip), vehicle: saline with Tween-80 103 % of control | [7] 106 % of control | dose: 135.0 mg/kg/injection, schedule: Q01DX009 (ip), vehicle: other 111 % of control | dose: 150.0 mg/kg/injection, schedule: Q01DX009 (ip), vehicle: other 104 % of control | dose: 150.0 mg/kg/injection, schedule: Q01DX009 (ip), vehicle: saline with Tween-80 111 % of control | [8] 101 % of control | dose: 200.0 mg/kg/injection, schedule: Q01DX009 (ip), vehicle: other 108 % of control | dose: 300.0 mg/kg/injection, schedule: Q01DX009 (ip), vehicle: other 116 % of control | dose: 300.0 mg/kg/injection, schedule: Q01DX009 (ip), vehicle: saline with Tween-80 106 % of control | [9] 105 % of control

CC(=O)N(C)c1ccc(NC(=O)Nc2ccc(C)cc2[N+](=O)[O-])cc1
inactive: [4] 94 % of control | [5] 94 % of control | [6] 94 % of control

CCOC(=O)c1cc([N+](=O)[O-])oc1C
inactive: dose: 100.0 mg/kg/injection, schedule: Q01DX009 (ip), vehicle: Klucel (hydroxypropylcellulose) (HPC) 102 % of control | [4] 98 % of control | dose: 200.0 mg/kg/injection, schedule: Q01DX009 (ip), vehicle: Klucel (hydroxypropylcellulose) (HPC) 102 % of control | [5] 94 % of control | dose: 400.0 mg/kg/injection, schedule: Q01DX009 (ip), vehicle: Klucel (hydroxypropylcellulose) (HPC) 112 % of control | [6] 100 % of control

O=C(O)CCC(C(=O)O)N1C(=O)c2ccccc2C1=O (centres undefined)
inactive: dose: 100.0 mg/kg/injection, schedule: Q04DX003 (ip), vehicle: saline with Tween-80 97 % of control | dose: 200.0 mg/kg/injection, schedule: Q04DX003 (ip), vehicle: saline with Tween-80 102 % of control | dose: 400.0 mg/kg/injection, schedule: Q04DX003 (ip), vehicle: saline with Tween-80 105 % of control

CCC(O)(CC)C(C)C
inactive: dose: 90.0 mg/kg/injection, schedule: Q01DX001 (ip), vehicle: saline 97 % of control | [7] 102 % of control | dose: 130.0 mg/kg/injection, schedule: Q01DX001 (ip), vehicle: saline 92 % of control | dose: 300.0 mg/kg/injection, schedule: Q01DX001 (ip), vehicle: saline 96 % of control | [9] 96 % of control
